Results: US11149020B2, “MAP kinase modulators and uses thereof” (The Trustees of Columbia University in the City of New York, priority 2013, dated 2021)
Where two headings read alike, the source gives them in different places.

Columns and labels:
[1] = molecular target: human p38α MAPK (Homo sapiens (Human), UniProt Q16539); test: Kinase assay, concentration dependent inhibition of p38α MAPK; format: biochemical; conditions: for Ki: kinetic analyses
[2] = molecular target: CK-1δ (Homo sapiens (Human), UniProt P48730); test: Kinase assay, concentration dependent inhibition of CK-1δ
[3] = system: murine microglial BV-2 cell line; test: cells; format: cell-based; conditions: BV-2 cells, TLR2, TLR4, TLR7/8, TLR9 ligands
[4] = system: LPS-induced IL-1β in brain cortex; test: In vivo LPS-induced brain cortex IL-1β; set-up: species or system mouse; conditions: oral administration, 20 mg/Kg, 6 hrs after LPS
[5] = system: APP/PS1 mice; test: LTP in APP/PS1 mice; format: in vivo, mouse; conditions: 2.5 mg/kg, daily, p.o., from 2 months until 3-4 months of age
[6] = system: APP/PS1 mice; test: RAWM in APP/PS1 mice; conditions: 2.5 mg/kg, daily, p.o., from 2 months of age
[7] = system: APP/PS1 mice; test: Fear conditioning (contextual and cued) in APP/PS1 mice; conditions: 2.5 mg/kg, daily, p.o., from 2 months of age

CK-1δ, sequence (P48730 whole entry): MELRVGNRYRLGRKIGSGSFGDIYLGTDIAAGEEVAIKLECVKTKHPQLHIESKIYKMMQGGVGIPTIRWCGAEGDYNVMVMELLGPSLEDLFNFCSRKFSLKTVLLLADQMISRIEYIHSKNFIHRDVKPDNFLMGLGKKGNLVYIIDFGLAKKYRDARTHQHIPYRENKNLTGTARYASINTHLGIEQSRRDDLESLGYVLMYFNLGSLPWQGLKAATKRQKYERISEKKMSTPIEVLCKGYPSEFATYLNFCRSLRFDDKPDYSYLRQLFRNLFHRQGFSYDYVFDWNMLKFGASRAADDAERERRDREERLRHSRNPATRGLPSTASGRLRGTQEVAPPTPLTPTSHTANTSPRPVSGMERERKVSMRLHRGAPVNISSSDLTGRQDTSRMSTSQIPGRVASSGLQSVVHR
human p38α MAPK, sequence (Q16539 whole entry): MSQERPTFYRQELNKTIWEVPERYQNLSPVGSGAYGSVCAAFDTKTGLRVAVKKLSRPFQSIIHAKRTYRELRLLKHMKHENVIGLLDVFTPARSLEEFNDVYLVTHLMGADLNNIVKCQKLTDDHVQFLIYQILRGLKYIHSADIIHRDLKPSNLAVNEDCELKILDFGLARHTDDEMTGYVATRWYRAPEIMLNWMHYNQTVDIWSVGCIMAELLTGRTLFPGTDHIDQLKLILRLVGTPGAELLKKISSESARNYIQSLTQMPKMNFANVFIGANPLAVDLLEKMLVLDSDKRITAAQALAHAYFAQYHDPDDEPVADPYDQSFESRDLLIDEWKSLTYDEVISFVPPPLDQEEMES

SMILES | IC50 [1] [nM] | IC50 ([2]; read-out: Ck1δ IC50) [nM] | further results
CC(C)Nc1cc(-c2ccncc2)c(-c2cccc3ccccc23)nn1 [25 (MW-031), N-isopropyl-6-(naphthalen-1-yl)-5-(pyridin-4-yl)pyridazin-3-amine] | 162 | > 10000 | –
CN(C)c1cnc(-c2cccc3ccccc23)c(-c2ccncc2)n1 [44 (MW-064), N,N-dimethyl-5-(naphthalen-1-yl)-6-(pyridin-4-yl)pyrazin-2-amine] | 456 | > 10000 | Ki [1]: 343 nM
CN1CCN(c2cc(-c3ccncc3)c(-c3cccc4cc(F)ccc34)nn2)CC1 [54 (MW-197), 3-(6-fluoronaphthalen-1-yl)-6-(4-methylpiperazin-1-yl)-4-(pyridin-4-yl)pyridazine] | 669 | 136000 | –
Fc1cnccc1-c1cc(C2CC2)nnc1-c1ccc2ccccc2c1 [10 (MW-167), 6-Cyclopropyl-4-(3-fluoropyridin-4-yl)-3-(naphthalen-2-yl)pyridazine] | 307 | > 10000 | Ki [1]: 86 nM
CN(C)c1cc(-c2ccncc2)c(-c2cccc3ccccc23)nn1 [MW-181 (1)] | – | – | IL-1β production with diverse TLR ligands [3]: inhibition of increased cytokine production by glia in response to LPS (IC50=820±30 nM) and other TLR ligands; LPS-induced IL-1β levels in brain cortex [4]: in vivo suppression of increased brain levels of IL-1β after oral administration
c1ccc2cc(-c3nnc(C4CC4)cc3-c3ccncc3)ccc2c1 [9 (MW-125), 6-Cyclopropyl-4-(pyridin-4-yl)-3-(naphthalen-2-yl)pyridazine] | 412 | > 10000 | Ki [1]: 127 nM; LTP defect in APP/PS1 mice [5]: rescue defects in LTP; spatial/reference memory defect (RAWM) in APP/PS1 mice [6]: rescue defects in spatial memory; contextual fear memory defect in APP/PS1 mice [7]: rescue the defect in contextual fear learning
CC(C)Nc1cc(-c2ccncc2)c(-c2ccc3ccccc3c2)nn1 [26 (MW-025), N-isopropyl-6-(naphthalen-2-yl)-5-(pyridin-4-yl)pyridazin-3-amine] | 130 | 2620 | –
CN(C)c1cc(-c2ccncc2)c(-c2cccc3cnccc23)nn1 [20 (MW-082), 6-(isoquinolin-5-yl)-N,N-dimethyl-5-(pyridin-4-yl)pyridazin-3-amine] | > 3200 | > 10000 | –
c1ccc2c(-c3nnc(C4CC4)cc3-c3ccncc3)cccc2c1 [7 (MW-077), 6-cyclopropyl-3-(naphthalen-1-yl)-4-(pyridin-4-yl)pyridazine] | 419 | > 10000 | Ki [1]: 186 nM; LTP defect in APP/PS1 mice [5]: rescue defects in LTP; spatial/reference memory defect (RAWM) in APP/PS1 mice [6]: rescue defects in spatial memory; contextual fear memory defect in APP/PS1 mice [7]: rescue the defect in contextual fear learning
c1ccc2c(-c3nnc(N4CCCCC4)cc3-c3ccncc3)cccc2c1 [12 (MW-124), 3-(naphthalen-1-yl)-6-(piperidin-1-yl)-4-(pyridin-4-yl)pyridazine] | 191 | > 10000 | –
CNc1cc(-c2ccncc2)c(-c2cccc3ccccc23)nn1 [15 (MW-156), N-methyl-6-(naphthalen-1-yl)-5-(pyridin-4-yl)pyridazin-3-amine] | 289 | > 10000 | Ki [1]: 276 nM
CN(C)c1cc(-c2ccncc2)c(-c2ccc3[nH]ccc3c2)nn1 [22 (MW-066), 6-(1H-indol-5-yl)-N,N-dimethyl-5-(pyridin-4-yl)pyridazin-3-amine] | 369 | 4280 | –
CN1CCN(c2cc(-c3ccncc3F)c(-c3cccc4ccccc34)nn2)CC1 [14 (MW-109), 4-(3-fluoropyridin-4-yl)-6-(4-methylpiperazin-1-yl)-3-(naphthalen-1-yl)pyridazine] | 131 | > 10000 | –
CN(C)c1cc(-c2ccncc2)c(-c2ccc(F)c3ccccc23)nn1 [17 (MW-078), 6-(4-fluoronaphthalen-1-yl)-N,N-dimethyl-5-(pyridin-4-yl)pyridazin-3-amine] | 1780 | > 10000 | –
c1ccc2c(-c3nnc(NC4CC4)cc3-c3ccncc3)cccc2c1 [13 (MW-107), N-cyclopropyl-6-(naphthalen-1-yl)-5-(pyridin-4-yl)pyridazin-3-amine] | 264 | > 10000 | Ki [1]: 91 nM
CCN(CC)c1cc(-c2ccncc2)c(-c2cccc3ccccc23)nn1 [23 (MW-033), N,N-diethyl-6-(naphthalen-1-yl)-5-(pyridin-4-yl)pyridazin-3-amine] | 162 | > 10000 | –
CN1CCN(c2cc(-c3ccncc3)c(-c3cccc4ccccc34)nn2)CC1 [11 (MW-122), 6-(4-methylpiperazin-1-yl)-3-(naphthalen-1-yl)-4-(pyridin-4-yl)pyridazine] | 185 | > 10000 | Ki [1]: 98 nM
c1ccc2cc(-c3nnc(N4CCOCC4)cc3-c3ccncc3)ccc2c1 [33 (MW-152), 4-(6-(naphthalen-2-yl)-5-(pyridin-4-yl)pyridazin-3-yl)morpholine] | 481 | – | –

More lines, main results first:

IC50 [1] [nM] | SMILES | IC50 ([2]; read-out: Ck1δ IC50) [nM] | further results
520 | CCN1CCN(c2cc(-c3ccncc3)c(-c3ccc4ccccc4c3)nn2)CC1 [62 (MW-026), 6-(4-ethylpiperazin-1-yl)-3-(naphthalen-2-yl)-4-(pyridin-4-yl)pyridazine] | 4990 | –
753 | c1cc(-c2nnc(N3CCNCC3)cc2-c2ccncc2)c2cc[nH]c2c1 [30 (MW-126), 4-(6-(piperazin-1-yl)-4-(pyridin-4-yl)pyridazin-3-yl)-1H-indole] | 2630 | –
735 | CN1CCN(c2cc(-c3ccncc3)c(-c3ccc4cccc(F)c4c3)nn2)CC1 [52 (MW-032), 3-(8-Fluoronaphthalen-2-yl)-6-(4-methylpiperazin-1-yl)-4-(pyridin-4-yl)pyridazine] | 17900 | –
235 | CN1CCN(c2cc(-c3ccncc3F)c(-c3ccc4ccccc4c3)nn2)CC1 [37 (MW-149), 4-(3-fluoropyridin-4-yl)-6-(4-methylpiperazin-1-yl)-3-(naphthalen-2-yl)pyridazine] | 4620 | –
3070 | CN1CCN(c2cc(-c3ccncc3)c(-c3cccc4[nH]ccc34)nn2)CC1 [29 (MW-108), 4-(6-(4-methylpiperazin-1-yl)-4-(pyridin-4-yl)pyridazin-3-yl)-1H-indole] | 6130 | –
974 | CN1CCN(c2cc(-c3ccncc3)c(-c3ccc4ccc(F)cc4c3)nn2)CC1 [50 (MW-017), 3-(7-Fluoronaphthalen-2-yl)-6-(4-methylpiperazin-1-yl)-4-(pyridin-4-yl)pyridazine] | 16800 | –
526 | CN1CCN(c2cc(-c3ccncc3)c(-c3cccc4c(F)cccc34)nn2)CC1 [55 (MW-063), 3-(5-fluoronaphthalen-1-yl)-6-(4-methylpiperazin-1-yl)-4-(pyridin-4-yl)pyridazine] | 32500 | –
175 | CNc1cc(-c2ccncc2)c(-c2ccc3ccccc3c2)nn1 [16 (MW-200), N-methyl-6-(naphthalen-2-yl)-5-(pyridin-4-yl)pyridazin-3-amine] | 4980 | Ki [1]: 100 nM
1170 | CN(C)c1cc(-c2ccncc2)c(-c2cccc3ccc(F)cc23)nn1 [18 (MW-085), 6-(7-fluoronaphthalen-1-yl)-N,N-dimethyl-5-(pyridin-4-yl)pyridazin-3-amine] | – | –
188 | CCCN(C)c1cc(-c2ccncc2)c(-c2cccc3ccccc23)nn1 [24 (MW-010), N-methyl-6-(naphthalen-1-yl)-N-propyl-5-(pyridin-4-yl)pyridazin-3-amine] | – | IC50 [2]: > 10000 nM
> 20000 | CN1CCN(c2cc(-c3ccncc3)c(-c3cc(F)cc4ccccc34)nn2)CC1 [53 (MW-059), 3-(3-fluoronaphthalen-1-yl)-6-(4-methylpiperazin-1-yl)-4-(pyridin-4-yl)pyridazine] | 119000 | –
189 | c1ccc2cc(-c3nnc(NC4CC4)cc3-c3ccncc3)ccc2c1 [35 (MW-153), N-cyclopropyl-6-(naphthalen-2-yl)-5-(pyridin-4-yl)pyridazin-3-amine] | – | –
> 1600 | CN(C)c1cc(-c2ccncc2)c(-c2cc(F)cc3cccnc23)nn1 [21 (MW-165), 6-(6-fluoroquinolin-8-yl)-N,N-dimethyl-5-(pyridin-4-yl)pyridazin-3-amine] | – | –
224 | CN1CCC(c2cc(-c3ccncc3)c(-c3ccc4ccccc4c3)nn2)CC1 [36 (MW-164), 6-(1-methylpiperidin-4-yl)-3-(naphthalen-2-yl)-4-(pyridin-4-yl)pyridazine] | – | Ki [1]: 101 nM; IC50 [2]: 11200 nM
> 1600 | COc1ccc2ccccc2c1-c1nnc(N(C)C)cc1-c1ccncc1 [19 (MW-155), 6-(2-methoxynaphthalen-1-yl)-N,N-dimethyl-5-(pyridin-4-yl)pyridazin-3-amine] | – | –
